Source: patent US10894036B2, “Use of marizomib for the treatment of central nervous system (CNS) cancers” (Celgene International II Sàrl, priority 2016, dated 2021)

Assay: Phase 1/2 MRZ + BEV and MRZ monotherapy in recurrent G4 MG: adverse events, DLT
[1] = MRZ+BEV, 36 pts, as of 12 Sep. 2016

Description: The clinical trial was a Phase 1, dose-escalation (3+3 design) followed by dose-expansion at recommended Phase 2 Dose (RP2D).
The drugs were infused on 28-Day Cycles. Tumor response is assessed every other cycle by RANO criteria.
The safety data will be presented in individual listings and summary tables, including frequency tables for adverse events and frequency and shift tables for laboratory variables. The safety population will be all subjects who received at least one dose of either study drug in Phase 1 or MRZ in Phase 2.

C[C@@]12OC(=O)[C@]1([C@@H](O)[C@@H]1C=CCCC1)NC(=O)[C@@H]2CCCl [marizomib]
2: Muscular Weakness: # pts, related to MRZ (MRZ+BEV, 12 Sep. 2016) | Muscular Weakness: # patients, AE related to labelled agent (BEV, MRZ, Both) [1]
19: Nausea: # pts, related to MRZ (MRZ+BEV, 12 Sep. 2016) | Nausea: # patients, AE related to labelled agent (BEV, MRZ, Both) [1]
4: Constipation: # pts, related to MRZ (MRZ+BEV, 12 Sep. 2016) | Constipation: # patients, AE related to labelled agent (BEV, MRZ, Both) [1]
36: Nausea: # events related to MRZ (MRZ+BEV, 17 May 2016)
generally well tolerated: tolerability (in combination with BEV and as monotherapy)
1: Delusion: # pts, related to MRZ (MRZ+BEV, 12 Sep. 2016) | Dysarthria: # pts, related to MRZ (MRZ+BEV, 12 Sep. 2016) | Fatigue: # pts, related to MRZ (MRZ+BEV, 12 Sep. 2016) | Hyponatremia: # pts, related to MRZ (MRZ+BEV, 12 Sep. 2016) | Insomnia: # pts, related to MRZ (MRZ+BEV, 12 Sep. 2016) | Delusion: # events related to MRZ (MRZ+BEV, 17 May 2016) | Dysarthria: # events related to MRZ (MRZ+BEV, 17 May 2016) | Fatigue: # events related to MRZ (MRZ+BEV, 17 May 2016) | Hypokalemia: # events related to MRZ (MRZ+BEV, 17 May 2016) | Insomnia: # events related to MRZ (MRZ+BEV, 17 May 2016) | Delusion: # patients, AE related to labelled agent (BEV, MRZ, Both) [1] | Dysarthria: # patients, AE related to labelled agent (BEV, MRZ, Both) [1] | Fatigue: # patients, AE related to labelled agent (BEV, MRZ, Both) [1] | Hyponatremia: # patients, AE related to labelled agent (BEV, MRZ, Both) [1] | Insomnia: # patients, AE related to labelled agent (BEV, MRZ, Both) [1]
12: Vomiting: # pts, related to MRZ (MRZ+BEV, 12 Sep. 2016) | Diarrhoea: # events related to MRZ (MRZ+BEV, 17 May 2016) | Vomiting: # patients, AE related to labelled agent (BEV, MRZ, Both) [1]
0: Anxiety: # pts, related to MRZ (MRZ+BEV, 12 Sep. 2016) | Aphasia: # pts, related to MRZ (MRZ+BEV, 12 Sep. 2016) | Appendicitis Perforated: # pts, related to MRZ (MRZ+BEV, 12 Sep. 2016) | Asthenia: # pts, related to MRZ (MRZ+BEV, 12 Sep. 2016) | Convulsion: # pts, related to MRZ (MRZ+BEV, 12 Sep. 2016) | Depressed Level of Consciousness: # pts, related to MRZ (MRZ+BEV, 12 Sep. 2016) | Dysphagia: # pts, related to MRZ (MRZ+BEV, 12 Sep. 2016) | Dysphonia: # pts, related to MRZ (MRZ+BEV, 12 Sep. 2016) | Dyspnoea: # pts, related to MRZ (MRZ+BEV, 12 Sep. 2016) | Ear Infection: # pts, related to MRZ (MRZ+BEV, 12 Sep. 2016) | Embolism: # pts, related to MRZ (MRZ+BEV, 12 Sep. 2016) | Epistaxis: # pts, related to MRZ (MRZ+BEV, 12 Sep. 2016) | Fracture of Femur: # pts, related to MRZ (MRZ+BEV, 12 Sep. 2016) | Haemorrhage Intracranial: # pts, related to MRZ (MRZ+BEV, 12 Sep. 2016) | Hemiparesis: # pts, related to MRZ (MRZ+BEV, 12 Sep. 2016) | Hyperglycemia: # pts, related to MRZ (MRZ+BEV, 12 Sep. 2016) | Hypertension: # pts, related to MRZ (MRZ+BEV, 12 Sep. 2016) | Hypokalemia: # pts, related to MRZ (MRZ+BEV, 12 Sep. 2016) | Hypotension: # pts, related to MRZ (MRZ+BEV, 12 Sep. 2016) | Lymphocyte Count Decreased: # pts, related to MRZ (MRZ+BEV, 12 Sep. 2016) | Optic Nerve Disorder: # pts, related to MRZ (MRZ+BEV, 12 Sep. 2016) | Pyramidal Tract Syndrome: # pts, related to MRZ (MRZ+BEV, 12 Sep. 2016) | Tumor Metastasis: # pts, related to MRZ (MRZ+BEV, 12 Sep. 2016) | Aphasia: # events related to MRZ (MRZ+BEV, 17 May 2016) | Appendicitis Perforated: # events related to MRZ (MRZ+BEV, 17 May 2016) | Asthenia: # events related to MRZ (MRZ+BEV, 17 May 2016) | Convulsion: # events related to MRZ (MRZ+BEV, 17 May 2016) | Dysphagia: # events related to MRZ (MRZ+BEV, 17 May 2016) | Dysphonia: # events related to MRZ (MRZ+BEV, 17 May 2016) | Dyspnoea: # events related to MRZ (MRZ+BEV, 17 May 2016) | Ear Infection: # events related to MRZ (MRZ+BEV, 17 May 2016) | Embolism: # events related to MRZ (MRZ+BEV, 17 May 2016) | Epistaxis: # events related to MRZ (MRZ+BEV, 17 May 2016) | Haemorrhage Intracranial: # events related to MRZ (MRZ+BEV, 17 May 2016) | Hemiparesis: # events related to MRZ (MRZ+BEV, 17 May 2016) | Hyperglycemia: # events related to MRZ (MRZ+BEV, 17 May 2016) | Hypertension: # events related to MRZ (MRZ+BEV, 17 May 2016) | Hypotension: # events related to MRZ (MRZ+BEV, 17 May 2016) | Lymphocyte Count Decreased: # events related to MRZ (MRZ+BEV, 17 May 2016) | Pyramidal Tract Syndrome: # events related to MRZ (MRZ+BEV, 17 May 2016) | Anxiety: # patients, AE related to labelled agent (BEV, MRZ, Both) [1] | Aphasia: # patients, AE related to labelled agent (BEV, MRZ, Both) [1] | Appendicitis Perforated: # patients, AE related to labelled agent (BEV, MRZ, Both) [1] | Asthenia: # patients, AE related to labelled agent (BEV, MRZ, Both) [1] | Convulsion: # patients, AE related to labelled agent (BEV, MRZ, Both) [1] | Depressed Level of Consciousness: # patients, AE related to labelled agent (BEV, MRZ, Both) [1] | Dysphagia: # patients, AE related to labelled agent (BEV, MRZ, Both) [1] | Dysphonia: # patients, AE related to labelled agent (BEV, MRZ, Both) [1] | Dyspnoea: # patients, AE related to labelled agent (BEV, MRZ, Both) [1] | Ear Infection: # patients, AE related to labelled agent (BEV, MRZ, Both) [1] | Embolism: # patients, AE related to labelled agent (BEV, MRZ, Both) [1] | Epistaxis: # patients, AE related to labelled agent (BEV, MRZ, Both) [1] | Fracture of Femur: # patients, AE related to labelled agent (BEV, MRZ, Both) [1] | Haemorrhage Intracranial: # patients, AE related to labelled agent (BEV, MRZ, Both) [1] | Hemiparesis: # patients, AE related to labelled agent (BEV, MRZ, Both) [1] | Hyperglycemia: # patients, AE related to labelled agent (BEV, MRZ, Both) [1] | Hypertension: # patients, AE related to labelled agent (BEV, MRZ, Both) [1] | Hypokalemia: # patients, AE related to labelled agent (BEV, MRZ, Both) [1] | Hypotension: # patients, AE related to labelled agent (BEV, MRZ, Both) [1] | Lymphocyte Count Decreased: # patients, AE related to labelled agent (BEV, MRZ, Both) [1] | Optic Nerve Disorder: # patients, AE related to labelled agent (BEV, MRZ, Both) [1] | Pyramidal Tract Syndrome: # patients, AE related to labelled agent (BEV, MRZ, Both) [1] | Tumor Metastasis: # patients, AE related to labelled agent (BEV, MRZ, Both) [1]
6: Anaemia: # pts, related to MRZ (MRZ+BEV, 12 Sep. 2016) | Ataxia: # pts, related to MRZ (MRZ+BEV, 12 Sep. 2016) | Confusional State: # pts, related to MRZ (MRZ+BEV, 12 Sep. 2016) | Infusion Site Pain: # pts, related to MRZ (MRZ+BEV, 12 Sep. 2016) | Headache: # events related to MRZ (MRZ+BEV, 17 May 2016) | Anaemia: # patients, AE related to labelled agent (BEV, MRZ, Both) [1] | Ataxia: # patients, AE related to labelled agent (BEV, MRZ, Both) [1] | Confusional State: # patients, AE related to labelled agent (BEV, MRZ, Both) [1] | Infusion Site Pain: # patients, AE related to labelled agent (BEV, MRZ, Both) [1]
13: Dizziness: # events related to MRZ (MRZ+BEV, 17 May 2016)
16: Hallucination: # events related to MRZ (MRZ+BEV, 17 May 2016) | Vomiting: # events related to MRZ (MRZ+BEV, 17 May 2016)
3: confusional state, marizomib-related adverse events ≥3, patients (MRZ + BEV, N = 36) | headache, marizomib-related adverse events ≥3, patients (MRZ + BEV, N = 36) | Falls: # pts, related to MRZ (MRZ+BEV, 12 Sep. 2016) | Vision Blurred: # pts, related to MRZ (MRZ+BEV, 12 Sep. 2016) | Muscular Weakness: # events related to MRZ (MRZ+BEV, 17 May 2016) | Falls: # patients, AE related to labelled agent (BEV, MRZ, Both) [1] | Vision Blurred: # patients, AE related to labelled agent (BEV, MRZ, Both) [1]
11: Hallucination: # pts, related to MRZ (MRZ+BEV, 12 Sep. 2016) | Hallucination: # patients, AE related to labelled agent (BEV, MRZ, Both) [1]
5: Headache: # pts, related to MRZ (MRZ+BEV, 12 Sep. 2016) | Constipation: # events related to MRZ (MRZ+BEV, 17 May 2016) | Headache: # patients, AE related to labelled agent (BEV, MRZ, Both) [1]
Four: patients with marizomib-related serious adverse events (MRZ + BEV, N = 36)
10: Ataxia: # events related to MRZ (MRZ+BEV, 17 May 2016)
8: Dizziness: # pts, related to MRZ (MRZ+BEV, 12 Sep. 2016) | Confusional State: # events related to MRZ (MRZ+BEV, 17 May 2016) | Dizziness: # patients, AE related to labelled agent (BEV, MRZ, Both) [1]
9: Diarrhoea: # pts, related to MRZ (MRZ+BEV, 12 Sep. 2016) | Anaemia: # events related to MRZ (MRZ+BEV, 17 May 2016) | Diarrhoea: # patients, AE related to labelled agent (BEV, MRZ, Both) [1]
